In patent US11053204B2, “Pyrimidinyloxy benzene derivatives as herbicides” (FMC Corporation, priority 2015, dated 2021):

Columns and labels:
Assay type in all cases: in vivo
[1] = system: foxtail, giant (giant foxtail, Setaria faberii); assay: Test C preemergence, plant response rating; details: Preemergence
Procedure, shortened: (§1)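 After sowing in loam–sand blend or silt loam, pots were sprayed preemergence; separately grown 1- to 4-leaf plants were sprayed postemergence. Following 13 to 15 d under greenhouse conditions, injury was rated visually on a 0 to 100 scale.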

[2] = system: nutsedge, yellow (yellow nutsedge, Cyperus esculentus); assay: Test C preemergence, plant response rating; details: Preemergence
Procedure, shortened: as §1

[3] = system: oilseed rape (Brassica napus); assay: Test C preemergence, plant response rating; details: Preemergence
Procedure, shortened: as §1

[4] = system: soybean (Glycine max); assay: Test C preemergence, plant response rating; details: Preemergence
Procedure, shortened: as §1

[5] = system: velvetleaf (Abutilon theophrasti); assay: Test C preemergence, plant response rating; details: Preemergence
Procedure, shortened: as §1

[6] = system: corn (Zea mays); assay: Test C preemergence, plant response rating; details: Preemergence
Procedure, shortened: as §1

[7] = system: waterhemp (common waterhemp, Amaranthus rudis); assay: Test C preemergence, plant response rating; details: Preemergence
Procedure, shortened: as §1

[8] = system: ryegrass, Italian (Italian ryegrass, Lolium multiflorum); assay: Test C preemergence, plant response rating; details: Preemergence
Procedure, shortened: as §1

[9] = system: blackgrass (Alopecurus myosuroides); assay: Test C preemergence, plant response rating; details: Preemergence
Procedure, shortened: as §1

[10] = system: wheat (winter wheat, Triticum aestivum); assay: Test C preemergence, plant response rating; details: Preemergence
Procedure, shortened: as §1

[11] = system: lambsquarters (Chenopodium album); assay: Test C preemergence, plant response rating; details: Preemergence
Procedure, shortened: as §1

[12] = system: crabgrass, large (large crabgrass, Digitaria sanguinalis); assay: Test C preemergence, plant response rating; details: Preemergence
Procedure, shortened: as §1

[13] = system: ragweed (common ragweed, Ambrosia elatior); assay: Test C preemergence, plant response rating; details: Preemergence
Procedure, shortened: as §1

[14] = system: morningglory (Ipomoea coccinea); assay: Test C preemergence, plant response rating; details: Preemergence
Procedure, shortened: as §1

[15] = system: foxtail, giant (giant foxtail, Setaria faberii); assay: Test C postemergence, plant response rating; details: for Foxtail, Giant plant response rating: scale 0 to 100 (0 no effect, 100 complete control)
Procedure, shortened: as §1

[16] = system: oilseed rape (Brassica napus); assay: Test C postemergence, plant response rating; details: for Oilseed Rape plant response rating: scale 0 to 100 (0 no effect, 100 complete control)
Procedure, shortened: as §1

[17] = system: velvetleaf (Abutilon theophrasti); assay: Test C postemergence, plant response rating
Procedure, shortened: as §1

[18] = system: blackgrass (Alopecurus myosuroides); assay: Test C postemergence, plant response rating; details: for Plant response rating, Blackgrass: scale 0 to 100; for Blackgrass plant response rating: scale 0 to 100 (0 no effect, 100 complete control)
Procedure, shortened: as §1

[19] = system: wheat (winter wheat, Triticum aestivum); assay: Test C postemergence, plant response rating
Procedure, shortened: as §1

[20] = system: barnyardgrass (Echinochloa crus-galli); assay: Test C postemergence, plant response rating; details: for Plant response rating, Barnyardgrass: scale 0 to 100; for Barnyardgrass plant response rating: scale 0 to 100 (0 no effect, 100 complete control)
Procedure, shortened: as §1

[21] = system: morningglory (Ipomoea coccinea); assay: Test C postemergence, plant response rating; details: for Morningglory plant response rating: scale 0 to 100 (0 no effect, 100 complete control)
Procedure, shortened: as §1

[22] = 125 g ai/ha, scale 0 to 100 (0 no effect, 100 complete control)

O=C(CCCCC(F)(F)F)c1c(Br)cccc1Oc1ncc(Cl)cn1 [Compound 82]
Plant response rating, Foxtail, Giant ([1]; 125 g ai/ha, scale of 0 to 100): 98 | Plant response rating, Foxtail, Giant ([1]; 31 g ai/ha, scale 0 to 100): 80 | Plant response rating, Foxtail, Giant ([1]; 62 g ai/ha, scale 0 to 100): 90 | Plant response rating, Nutsedge, Yellow ([2]; 125 g ai/ha, scale of 0 to 100): 0 | Plant response rating, Nutsedge, Yellow ([2]; 31 g ai/ha, scale 0 to 100): 0 | Plant response rating, Nutsedge, Yellow ([2]; 62 g ai/ha, scale 0 to 100): 0 | Plant response rating, Oilseed Rape ([3]; 125 g ai/ha, scale of 0 to 100): 50 | Plant response rating, Oilseed Rape ([3]; 31 g ai/ha, scale 0 to 100): 0 | Plant response rating, Oilseed Rape ([3]; 62 g ai/ha, scale 0 to 100): 5 | Plant response rating, Soybean ([4]; 125 g ai/ha, scale of 0 to 100): 0 | Plant response rating, Soybean ([4]; 31 g ai/ha, scale 0 to 100): 0 | Plant response rating, Soybean ([4]; 62 g ai/ha, scale 0 to 100): 0 | Plant response rating, Velvetleaf ([5]; 125 g ai/ha, scale of 0 to 100): 10 | Plant response rating, Velvetleaf ([5]; 31 g ai/ha, scale 0 to 100): 0 | Plant response rating, Velvetleaf ([5]; 62 g ai/ha, scale 0 to 100): 0 | Plant response rating, Corn ([6]; 125 g ai/ha, scale of 0 to 100): 5 | Plant response rating, Corn ([6]; 16 g ai/ha, scale 0 to 100): 0 | Plant response rating, Corn ([6]; 31 g ai/ha, scale 0 to 100): 0 | Plant response rating, Corn ([6]; 62 g ai/ha, scale 0 to 100): 0 | Plant response rating, Waterhemp ([7]; 125 g ai/ha, scale of 0 to 100): 100 | Plant response rating, Waterhemp ([7]; 31 g ai/ha, scale 0 to 100): 50 | Plant response rating, Waterhemp ([7]; 62 g ai/ha, scale 0 to 100): 100 | Plant response rating, Ryegrass, Italian ([8]; 125 g ai/ha, scale of 0 to 100): 5 | Plant response rating, Ryegrass, Italian ([8]; 31 g ai/ha, scale 0 to 100): 0 | Plant response rating, Ryegrass, Italian ([8]; 62 g ai/ha, scale 0 to 100): 5 | Plant response rating, Blackgrass ([9]; 125 g ai/ha, scale of 0 to 100): 5 | Plant response rating, Blackgrass ([9]; 16 g ai/ha, scale 0 to 100): 0 | Plant response rating, Blackgrass ([9]; 31 g ai/ha, scale 0 to 100): 0 | Plant response rating, Blackgrass ([9]; 62 g ai/ha, scale 0 to 100): 5 | Plant response rating, Wheat ([10]; 125 g ai/ha, scale of 0 to 100): 0 | Plant response rating, Wheat ([10]; 31 g ai/ha, scale 0 to 100): 0 | Plant response rating, Wheat ([10]; 62 g ai/ha, scale 0 to 100): 0 | Plant response rating, Lambsquarters ([11]; 125 g ai/ha, scale of 0 to 100): 70 | Plant response rating, Lambsquarters ([11]; 31 g ai/ha, scale 0 to 100): 20 | Plant response rating, Lambsquarters ([11]; 62 g ai/ha, scale 0 to 100): 20 | Plant response rating, Crabgrass, Large ([12]; 125 g ai/ha, scale of 0 to 100): 98 | Plant response rating, Crabgrass, Large ([12]; 16 g ai/ha, scale 0 to 100): 60 | Plant response rating, Crabgrass, Large ([12]; 31 g ai/ha, scale 0 to 100): 70 | Plant response rating, Crabgrass, Large ([12]; 62 g ai/ha, scale 0 to 100): 90 | Plant response rating, Ragweed ([13]; 125 g ai/ha, scale of 0 to 100): 30 | Plant response rating, Ragweed ([13]; 31 g ai/ha, scale 0 to 100): 0 | Plant response rating, Ragweed ([13]; 62 g ai/ha, scale 0 to 100): 20 | Plant response rating, Morningglory ([14]; 125 g ai/ha, scale of 0 to 100): 10 | Plant response rating, Morningglory ([14]; 31 g ai/ha, scale 0 to 100): 0 | Plant response rating, Morningglory ([14]; 62 g ai/ha, scale 0 to 100): 0 | Plant response rating, Foxtail, Giant ([15]; 16 g ai/ha, scale of 0 to 100): 10 | Plant response rating, Foxtail, Giant ([15]; 31 g ai/ha, scale 0 to 100): 10 | Foxtail, Giant plant response rating ([15]; 62 g ai/ha): 10 | Foxtail, Giant plant response rating ([15]; 125 g ai/ha): 20 | Plant response rating, Oilseed Rape ([16]; 16 g ai/ha, scale of 0 to 100): 70 | Plant response rating, Oilseed Rape ([16]; 31 g ai/ha, scale 0 to 100): 95 | Oilseed Rape plant response rating ([16]; 62 g ai/ha): 95 | Oilseed Rape plant response rating ([16]; 125 g ai/ha): 95 | Plant response rating, Velvetleaf ([17]; 16 g ai/ha, scale of 0 to 100): 35 | Plant response rating, Velvetleaf ([17]; 31 g ai/ha, scale 0 to 100): 45 | Velvetleaf plant response rating [17, 22]: 75 | Plant response rating, Blackgrass ([18]; 16 g ai/ha): 30 | Plant response rating, Blackgrass ([18]; 31 g ai/ha): 35 | Blackgrass plant response rating ([18]; 62 g ai/ha): 40 | Blackgrass plant response rating ([18]; 125 g ai/ha): 45 | Plant response rating, Wheat ([19]; 16 g ai/ha, scale of 0 to 100): 5 | Plant response rating, Wheat ([19]; 31 g ai/ha, scale 0 to 100): 10 | Wheat plant response rating [19, 22]: 30 | Plant response rating, Barnyardgrass ([20]; 16 g ai/ha): 10 | Plant response rating, Barnyardgrass ([20]; 31 g ai/ha): 10 | Barnyardgrass plant response rating ([20]; 62 g ai/ha): 10 | Barnyardgrass plant response rating ([20]; 125 g ai/ha): 60 | Plant response rating, Morningglory ([21]; 16 g ai/ha, scale of 0 to 100): 25 | Plant response rating, Morningglory ([21]; 31 g ai/ha, scale 0 to 100): 40 | Morningglory plant response rating ([21]; 62 g ai/ha): 30 | Morningglory plant response rating ([21]; 125 g ai/ha): 75
